In patent US20250051340A1, “TRIAZOLONE DERIVATIVE SALT AS NEUTROPHIL ELASTASE INHIBITOR” (CHIESI FARMACEUTICI S.P.A., priority 2021, published 2025):
Like-named read-outs stand apart in the source and are kept apart here. Values belong to the compound of their own block, whether it stands above or below them.

Columns and labels:
[1] = Head-out plethysmography (HOP) assay, lung function parameters; details: male Wistar rats, single snout-only inhalation, dry powder, 0.7 and 7 mg/kg, during or after dosing
[2] = target: T1, human neutrophil elastase (HNE) (Homo sapiens, UniProt P08246); assay: HNE-induced lung injury assay (BAL fluid haemoglobin content); type: in vivo, rat; details: i.t.; for % Inhibition of HNE-induced BAL fluid haemoglobin content at 3 μg/Kg / % Inhibition of HNE-induced BAL fluid haemoglobin content at 30 μg/Kg / % Inhibition of HNE-induced BAL fluid haemoglobin content at 300 μg/Kg: male Sprague Dawley rats, wet formulation, 3 h before HNE 100 U/rat, vs HNE-treated vehicle control
T1 sequence (P08246 30-267): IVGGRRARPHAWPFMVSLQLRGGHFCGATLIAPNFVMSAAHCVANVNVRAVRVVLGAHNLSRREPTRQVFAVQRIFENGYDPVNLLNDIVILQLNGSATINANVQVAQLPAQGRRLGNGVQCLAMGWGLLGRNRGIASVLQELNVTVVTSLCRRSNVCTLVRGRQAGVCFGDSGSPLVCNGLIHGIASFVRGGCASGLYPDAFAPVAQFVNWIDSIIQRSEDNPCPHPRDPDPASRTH
Description: Then, one hour after the PBS or HNE administration animals were sacrificed and bronchoalveolar lavage (BAL) was performed in order to assess the HNE-induced lung injury measured as haemoglobin concentration. BAL fluid samples were centrifuged at 800 g for 15 min at 4° C. The supernatant was collected, and the pellet was re-suspended in 3 mL of distilled water. A standard curve with known volumes of lysated blood cells was made from a stem solution of lysated blood cells. 150 µL of standards and samples were transferred in duplicate to a 96-well plate and the OD measured at 412 nm. Percentage of compound efficacy (assessed as inhibition of HNE-induced haemoglobin content in BALF) was calculated following this formula: 100−[(mean of haemoglobin concentration of test compound treated rats exposed to HNE)−(mean of haemoglobin concentration of vehicle treated rats exposed to PBS)]/[(mean of haemoglobin concentration of vehicle treated rats exposed to HNE)−(mean of haemoglobin concentration of vehicle treated rats exposed to PBS)]×100.

[3] = Solubility in water at RT; type: physicochemical
Description: The complete dissolution of the material was visually observed.
A saturated solution of hemi-pamoate salt in water at RT was prepared, with a theoretical concentration of about 2 mg/ml. The solid in excess was filtered out and the content of the solution was quantified by LC/UV at different check points until 24 hours.

[4] = rat, in vivo
[5] = thermodynamic from solid, read-out: Solubility

Compound: (2-{5-Cyano-2-[(R)-6-methoxycarbonyl-7-methyl-3-oxo-8-(3-trifluoromethyl-phenyl)-2,3,5,8-tetrahydro-[1,2,4]triazolo[4,3-a]pyrimidin-5-yl]-phenyl}-ethyl)-trimethyl-ammonium hemi-pamoate
effect on lung function parameters (respiratory rate, tidal volume, PenH) [1]: does not affect any lung function parameters

solubility ([3]; methanesulfonate): >200 mg/mL | solubility [3, 5]: > 200 mg/mL | % of Reduction of tidal volume ([4]; male, Wistar): 35-39% | increase of PenH compared to vehicle ([4]; male, Wistar, 0.6 mg/kg): about 8 fold | increase of respiratory rate, peak effect ([4]; male, Wistar, 0.6 mg/kg): 32% | reduction of tidal volume, peak effect ([4]; male, Wistar, 0.6 mg/kg): 35% | increase of PenH compared to vehicle ([4]; male, Wistar, 6 mg/kg): ~16 fold | increase of respiratory rate, peak effect ([4]; male, Wistar, 6 mg/kg): 54% | reduction of tidal volume, peak effect ([4]; male, Wistar, 6 mg/kg): 39%
Compound: COC(=O)C1=C(C)N(c2cccc(C(F)(F)F)c2)c2n[nH]c(=O)n2[C@@H]1c1ccc(C#N)cc1CC[N+](C)(C)C.CS(=O)(=O)[O-] [Methanesulfonate, (2-{5-Cyano-2-[(R)-6-methoxycarbonyl-7-methyl-3-oxo-8-(3-trifluoromethyl-Phenyl)-2,3,5,8-tetrahydro-[1,2,4]triazolo[4,3-a]Pyrimidin-5-yl]-phenyl}-ethyl)-trimethyl-ammonium methanesulfonate]
% Inhibition of HNE-induced BAL fluid haemoglobin content at 3 μg/Kg [2]: 19% | % Inhibition of HNE-induced BAL fluid haemoglobin content at 30 μg/Kg ([2]; 30 μg/kg): 30% | % Inhibition of HNE-induced BAL fluid haemoglobin content at 300 μg/Kg ([2]; 300 μg/kg): 73%

solubility [3, 5]: 0.17 mg/mL
Compound: COC(=O)C1=C(C)N(c2cccc(C(F)(F)F)c2)c2n[nH]c(=O)n2[C@@H]1c1ccc(C#N)cc1CC[N+](C)(C)C [Hemi-pamoate, (2-{5-Cyano-2-[(R)-6-methoxycarbonyl-7-methyl-3-oxo-8-(3-trifluoromethyl-phenyl)-2,3,5,8-tetrahydro-[1,2,4]triazolo[4,3-a]pyrimidin-5-yl]-phenyl}-ethyl)-trimethyl-ammonium hemi-pamoate]
% Inhibition of HNE-induced BAL fluid haemoglobin content at 3 μg/Kg [2]: 30% | % Inhibition of HNE-induced BAL fluid haemoglobin content at 30 μg/Kg ([2]; 30 μg/kg): 43% | % Inhibition of HNE-induced BAL fluid haemoglobin content at 300 μg/Kg ([2]; 300 μg/kg): 80% | inhibition of BAL fluid haemoglobin levels, dry powder, 30 μg/kg ([2]; rats, dry powder formulation, 30 μg/kg, vs HNE-treated vehicle (lactose) control): 4% | inhibition of BAL fluid haemoglobin levels, dry powder, 300 μg/kg ([2]; rats, dry powder formulation, 300 μg/kg, vs HNE-treated vehicle (lactose) control): 54% | inhibition of BAL fluid haemoglobin levels, dry powder, 600 μg/kg ([2]; rats, dry powder formulation, 600 μg/kg, vs HNE-treated vehicle (lactose) control): 60% | % of Reduction of tidal volume [4]: No variation of any lung function parameters

% of Reduction of tidal volume ([4]; male, Wistar): 38% | increase in PenH area compared to vehicle ([4]; male, Wistar, 0.55 mg/kg): about 8 fold | increase in respiratory rate, maximum effect ([4]; male, Wistar, 0.55 mg/kg): 59% | increase in PenH area compared to vehicle ([4]; male, Wistar, 5.5 mg/kg): ~20 fold | reduction in tidal volume, maximum ([4]; male, Wistar, 5.5 mg/kg): 38%
Compound: COC(=O)C1=C(C)N(c2cccc(C(F)(F)F)c2)c2n[nH]c(=O)n2[C@@H]1c1ccc(C#N)cc1CC[N+](C)(C)C.[Br-] [Bromide, (2-{5-Cyano-2-[(R)-6-methoxycarbonyl-7-methyl-3-oxo-8-(3-trifluoromethyl-phenyl)-2,3,5,8-tetrahydro-[1,2,4]triazolo[4,3-a]pyrimidin-5-yl]-phenyl}-ethyl)-trimethyl-ammonium bromide]
